# Assays:
# [1] = system: Brassica rapa subsp. oleifera; test: Growth inhibition of Brassica rapa subsp. oleifera assessed as chlorophyll b level at 3 x 10^-4 M after 7 days; format: functional; set-up: scale not given: the % may be the effect or the level left
# [2] = system: Brassica rapa subsp. oleifera; test: Growth inhibition of Brassica rapa subsp. oleifera assessed as chlorophyll b level at 1 x 10^-4 M after 7 days; format: functional; set-up: scale not given: the % may be the effect or the level left
# [3] = system: Brassica rapa subsp. oleifera; test: Growth inhibition of Brassica rapa subsp. oleifera assessed as chlorophyll a level at 3 x 10^-5 M after 7 days; format: functional; set-up: scale not given: the % may be the effect or the level left
# [4] = system: Brassica rapa subsp. oleifera; test: Growth inhibition of Brassica rapa subsp. oleifera assessed as chlorophyll a level at 5 x 10^-5 M after 7 days; format: functional; set-up: scale not given: the % may be the effect or the level left
# [5] = Toxicity in Mus musculus ddY (mouse) assessed as mortality at 500 mg/kg, ip after 4 days; format: organism-based; set-up: dose 500 mg/kg, route intraperitoneal; settings: in vivo
# [6] = Toxicity in Mus musculus ddY (mouse) assessed as mortality at 650 mg/kg, ip after 4 days; format: organism-based; set-up: dose 650 mg/kg, route intraperitoneal; settings: in vivo
# [7] = Toxicity in Mus musculus ddY (mouse) assessed as mortality at 600 mg/kg, ip after 4 days; format: organism-based; set-up: dose 600 mg/kg, route intraperitoneal; settings: in vivo
# [8] = Toxicity in ip dosed Mus musculus ddY (mouse) assessed as mortality after 1 to 7 days; format: organism-based; settings: in vivo
# [9] = system: Brassica rapa subsp. oleifera; test: Growth inhibition of Brassica rapa subsp. oleifera assessed as total chlorophyll level at 5 x 10^-5 M after 7 days; format: functional; set-up: scale not given: the % may be the effect or the level left
# [10] = system: Brassica rapa subsp. oleifera; test: Growth inhibition of Brassica rapa subsp. oleifera assessed as total chlorophyll level at 3 x 10^-5 M after 7 days; format: functional; set-up: scale not given: the % may be the effect or the level left
# [11] = system: Brassica rapa subsp. oleifera; test: Growth inhibition of Brassica rapa subsp. oleifera assessed as total chlorophyll level at 1 x 10^-4 M after 7 days; format: functional; set-up: scale not given: the % may be the effect or the level left
# [12] = system: Brassica rapa subsp. oleifera; test: Growth inhibition of Brassica rapa subsp. oleifera assessed as total chlorophyll level at 3 x 10^-4 M after 7 days; format: functional; set-up: scale not given: the % may be the effect or the level left
# [13] = system: Brassica rapa subsp. oleifera; test: Growth inhibition of Brassica rapa subsp. oleifera assessed as root growth at 3 x 10^-5 M after 7 days; format: functional
# [14] = system: Brassica rapa subsp. oleifera; test: Growth inhibition of Brassica rapa subsp. oleifera assessed as root growth at 5 x 10^-5 M after 7 days; format: functional
# [15] = system: Brassica rapa subsp. oleifera; test: Growth inhibition of Brassica rapa subsp. oleifera assessed as root growth at 1 x 10^-4 M after 7 days; format: functional
# [16] = system: Brassica rapa subsp. oleifera; test: Growth inhibition of Brassica rapa subsp. oleifera assessed as root growth at 3 x 10^-4 M after 7 days; format: functional
# [17] = Toxicity in Mus musculus ddY (mouse) assessed as mortality at 400 mg/kg, ip after 4 days; format: organism-based; set-up: dose 400 mg/kg, route intraperitoneal; settings: in vivo
# [18] = Toxicity in Mus musculus ddY (mouse) assessed as mortality at 450 mg/kg, ip after 3 days; format: organism-based; set-up: dose 450 mg/kg, route intraperitoneal; settings: in vivo
# [19] = Toxicity in Mus musculus ddY (mouse) assessed as mortality at 400 mg/kg, ip after 3 days; format: organism-based; set-up: dose 400 mg/kg, route intraperitoneal; settings: in vivo
# [20] = Toxicity in Mus musculus ddY (mouse) assessed as mortality at 550 mg/kg, ip after 3 days; format: organism-based; set-up: dose 550 mg/kg, route intraperitoneal; settings: in vivo
# [21] = Toxicity in Mus musculus ddY (mouse) assessed as mortality at 500 mg/kg, ip after 3 days; format: organism-based; set-up: dose 500 mg/kg, route intraperitoneal; settings: in vivo
# [22] = Toxicity in Mus musculus ddY (mouse) assessed as mortality at 650 mg/kg, ip after 3 days; format: organism-based; set-up: dose 650 mg/kg, route intraperitoneal; settings: in vivo
# [23] = Toxicity in Mus musculus ddY (mouse) assessed as mortality at 600 mg/kg, ip after 3 days; format: organism-based; set-up: dose 600 mg/kg, route intraperitoneal; settings: in vivo
# [24] = Toxicity in Mus musculus ddY (mouse) assessed as mortality at 450 mg/kg, ip after 2 days; format: organism-based; set-up: dose 450 mg/kg, route intraperitoneal; settings: in vivo
# [25] = Toxicity in Mus musculus ddY (mouse) assessed as mortality at 550 mg/kg, ip after 2 days; format: organism-based; set-up: dose 550 mg/kg, route intraperitoneal; settings: in vivo
# [26] = Toxicity in Mus musculus ddY (mouse) assessed as mortality at 500 mg/kg, ip after 2 days; format: organism-based; set-up: dose 500 mg/kg, route intraperitoneal; settings: in vivo
# [27] = Toxicity in Mus musculus ddY (mouse) assessed as mortality at 650 mg/kg, ip after 2 days; format: organism-based; set-up: dose 650 mg/kg, route intraperitoneal; settings: in vivo
# [28] = Toxicity in Mus musculus ddY (mouse) assessed as mortality at 600 mg/kg, ip after 2 days; format: organism-based; set-up: dose 600 mg/kg, route intraperitoneal; settings: in vivo
# [29] = Toxicity in Mus musculus ddY (mouse) assessed as mortality at 400 mg/kg, ip after 2 days; format: organism-based; set-up: dose 400 mg/kg, route intraperitoneal; settings: in vivo
compound,measurement,setting,value
O=C(O)CN1C(=O)CSC1=S [RHODANINE-3-ACETIC ACID],Activity,[1],3.76%
same,Activity,[2],5.48%
same,Activity,[3],18.01%
same,Activity,[4],17.08%
same,mortality at 96 h,[5],20%
same,mortality at 96 h,[6],100%
same,mortality at 96 h,[7],80%
same,LD50,[8],510 mg/kg
same,Activity,[9],24.42%
same,Activity,[10],25.06%
same,Activity,[11],19.57%
same,Activity,[12],13.99%
same,Root length,[13],57 mm
same,Root length,[14],57.1 mm
same,Activity,[15],39.8 mm
same,Activity,[16],18.3 mm
same,mortality at 96 h,[17],0%
same,mortality at 72 h,[18],0%
same,mortality at 72 h,[19],0%
same,mortality at 72 h,[20],40%
same,mortality at 72 h,[21],20%
same,mortality at 72 h,[22],100%
same,mortality at 72 h,[23],60%
same,mortality at 48 h,[24],0%
same,mortality at 48 h,[25],0%
same,mortality at 48 h,[26],20%
same,mortality at 48 h,[27],100%
same,mortality at 48 h,[28],60%
same,mortality at 48 h,[29],0%
